Consider four compounds from PMC3179850 (Bioorganic & medicinal chemistry letters, 2009).

One experiment concerns HIV-1MDR/JSL (R5). Kind of experiment: microbe, parasite or virus in culture. Format: cell-based.
In the next experiment the target is HIV-1 protease (Human immunodeficiency virus type 1 group M subtype B, UniProt P04585). Kind of experiment: HIV-1 protease enzyme inhibitory assay. Type of experiment: biochemical.
The next experiment has as its system HIV-1MDR/MM (R5). Format: cell-based.
In the next experiment the test system is HIV-1MDR/G (X4). Type of experiment: cell-based.
Another experiment concerns HIV-1MDR/TM (X4). Type of experiment: cell-based.
For another experiment, the system named is HIV-1MDR/C (X4). Format: cell-based.

Broadly, the IC50 is the concentration at which inhibition is half-maximal.

Compound `CC(C)CN(C[C@@H](O)[C@H](Cc1ccccc1)NC(=O)O[C@H]1CCOC1)S(=O)(=O)c1ccc(N)cc1` [APV, Amprenavir, reference compound] had an IC50 with HIV-1MDR/JSL (R5) (Human immunodeficiency virus 1) of 531 ± 69 nM.
Take `Cc1ccccc1CNC(=O)[C@H]1N(C(=O)[C@@H](O)[C@H](Cc2ccccc2)NC(=O)O[C@H]2CO[C@H]3OCC[C@H]32)CSC1(C)C` [Inhibitor 3b]: the potency enhancement entry at HIV-1 protease (with respect to 3a, enzyme inhibition) was “over 40 fold”. Moreover, the potency over amprenavir in the experiment on HIV-1MDR/MM (R5) was no less than 5 fold; in the experiment on HIV-1MDR/G (X4), no less than 5 fold; with HIV-1MDR/TM (X4), no less than 5 fold; in the experiment on HIV-1MDR/JSL (R5) (HIV-1MDR/JSL) it was “over 2 fold”; in the experiment with HIV-1MDR/C (X4), no less than 5 fold.
In the case of `Cc1ccccc1CNC(=O)[C@H]1N(C[C@@H](O)[C@H](Cc2ccccc2)NC(=O)O[C@H]2CCOC2)CSC1(C)C` [Inhibitor 14a], the “reduction in enzyme inhibitory activity” value at HIV-1 protease (relative to corresponding inhibitor 3a) is on record as “over 400 fold”.
Consider `Cc1cc(CO)ccc1CNC(=O)[C@H]1N(C(=O)[C@@H](O)[C@H](Cc2ccccc2)NC(=O)O[C@H]2CO[C@H]3OCC[C@H]32)CSC1(C)C` [Inhibitor 16c], for which the “enzyme inhibitory activity (in words)” value on HIV-1 protease was “sub-nanomolar”.
